Assay results as given in patent US20080027052A1, “METHODS FOR TREATING CYSTIC KIDNEY DISEASE” (priority 2006, published 2008).

Key:
Format in all cases: in vivo
male Cy/+ rat [1] = assay: Blood laboratory values in male Cy/+ rats treated from week 20; conditions: for BUN / Calcium / Phosphorus / PTH: 38 week time point, treatment from week 20; for PTH: Compound A 0.05% w/w in chow, 3% Ca gluconate in water, mean ± SD
Excerpt: (§1) The Cy rat is a Han:SPRD rat with a spontaneous genetic mutation called Cy. These animals develop progressive kidney disease due to the formation of multiple kidney tubule cysts that arise from both the proximal and later the distal tubule. The colony of rats has been maintained through successive breeding of two heterozygous Cy/+ rats. This is an autosomal dominant gene, such that at birth, ¼ of the animals are normal, ½ are heterozygotes (Cy/+) and ¼ are homozygotes (Cy/Cy). Homozygotes (Cy/Cy) of either sex are easily identified after approximately 10 days of age by abdominal palpation and elevations in blood urea nitrogen (BUN), a finding used to verify parental heterozygosity for PKD. Homozygous Cy/Cy rats develop massively enlarged kidneys and severe azotemia and die by 4 weeks of age. Heterozygote male animals develop progressive chronic kidney disease (CKD) with rise in blood urea nitrogen (BUN) by 10 weeks and death from uremia by 40-50 weeks. Heterozygote female animals develop progressive CKD with rise in BUN not detected until 20 weeks, with death at 80 weeks. […] Average food intake was 50 g/kg/day. At the time of sacrifice, rats were anesthetized with sodium pentobarbitol ([…], i.p.) and weighed. Blood was obtained for determination of serum creatinine, BUN, intact PTH, Ca and PO4. The left kidney was removed, weighed and frozen in liquid nitrogen for subsequent batch analyses. The right kidney was perfusion fixed with 4% paraformaldehyde in phosphate buffer (ph 7.4). The tissue was embedded in paraffin for histological studies. Cyst volume density was determined by point count stereology from randomly selected fields from hematoxylin and cosin (H&E) stained slides. Fibrosis was graded semi-quantitatively (scored 0-4+) from picrosirius red stained slides. The reviewer was blinded to the treatment group. Both measure were also standardized by body weight (for cyst volume) or kidney weight (for fibrosis). Plasma urea and creatinine were determined using colorimetric assays (Urea-Sigma 640 creatinine kit). Intact PTH was determined by ELISA; Alpacoa, and Ca and PO4 were done with using colorimeteric analyses (Sigma). Cy−/+ (cystic) male rats were assigned to one of four treatment groups (Table 5) and were phenotyped (by BUN) at 10 weeks and again at 20 weeks to ensure animals were cystic. […] Comparator groups included Compound A with calcium in the drinking water versus calcium alone. These comparator groups allow differentiation of the effects of changes in PTH and calcium from a direct action of the calcimimetic. FIG. 1 schematically represents the study design. At 10 weeks, animals were phenotyped. At 20 weeks, animals were started on the treatment arm. Half the animals were sacrificed at 34 weeks, half the animals were sacrificed 38 weeks. At each time point, samples from 8 animals were perfusion fixed with paraformaldehyde for CT scan, bone histology and aorta histology, samples from 8 animals were saline perfused for HCl extraction to determine calcium and phosphate content, and blood samples from 16 animals were collected for blood tests (PTH, calcium, phosphorus, BUN). Animals in the paraformaldehyde fixation group received tetracycline administration four and one week prior to sacrifice to label the bone for morphometric analyses. For the purpose of this application, only the laboratory and kidney end points will be presented. All data was analyzed by a statistician. The BUN was analyzed only at week 20 and end point (week 34 or 38) and was analyzed by ANCOVA adjusting for baseline (week 20) values. The PTH, calcium, and phosphorus were analyzed at baseline (week 20), a mid point, and end point (week 34, 38). These values were compared by a mixed model adjusting for baseline values and time point. The kidney assessments were only measured at end point at the time of sacrifice, and therefore the measures were compared by ANCOVA and within group comparisons.

male Cy/+ rat [2] = assay: Kidney assessment (cyst volume, fibrosis, kidney weight, histology) in male Cy/+ rats; conditions: for Cyst Vol / Cyst Vol as a % of BW / Total Kidney weight: at sacrifice; for Cyst Vol / Cyst Vol as a % of BW / Total Kidney weight / Fibrosis Score: n = 7-8, mean ± SD; for Histologic appearance of the cysts (FIG. 7): representative kidney sections, compared with control cystic animals; for Fibrosis Score: semi-quantitative score 0-4+, picrosirius red
Excerpt: as §1, with “fibrosis). Four micron transverse tissue section of the kidney, including cortex” for “fibrosis). Plasma urea”, “and medulla, was stained with hematoxylin-cosin. Five fields/sections, from cortex through outer medulla,” for “and creatinine”, “were evaluated for the degree of cystic change. Other sections were stained with picrosirius red for the evaluation of fibrosis. Fibrosis” for “were determined using colorimetric assays (Urea-Sigma 640 creatinine kit). Intact PTH”, “was scored (0-4+) for the relative amount of collagen within the interstitium from picrosirius red staining of collagen fibers. These assessments are the standard methods used to assess response to therapy in animal models of kidney disease (Gattone et al, Nature Medicine 9: 1323-6, 2003).” for “was determined by ELISA; Alpacoa, and Ca and PO4 were done with using colorimeteric analyses (Sigma).”, “values. […]” for “values. The PTH, calcium, and phosphorus were analyzed at baseline (week 20), a mid point, and end point (week 34, 38). These values were compared by a mixed model adjusting for baseline values and time point. The kidney assessments were only measured at end point at the time of sacrifice, and therefore the measures were compared by ANCOVA and within group comparisons.”

male Cy/+ rat [3] = assay: as above; conditions: ANOVA with post group comparisons, all p<0.01, HCl

| SMILES | BUN (male Cy/+ rat [1]) [mg/dL] | Calcium (male Cy/+ rat [1]) [mg/dL] | Phosphorus (male Cy/+ rat [1]) [mg/dL] | PTH (male Cy/+ rat [1]) [pg/mL] | Change in BUN (week 20 to week 38) = Delta BUN (male Cy/+ rat [1]) [mg/dL] | Cyst Vol (male Cy/+ rat [2]) [cc] | Cyst Vol as a % of BW (male Cy/+ rat [2]) [%] | Total Kidney weight (male Cy/+ rat [2]) [g] | Histologic appearance of the cysts (FIG. 7) (male Cy/+ rat [2]) | Fibrosis Score (male Cy/+ rat [2]) | Cyst volume and fibrosis compared to control (FIGS. 3-6) (male Cy/+ rat [3]) | Cyst volume and fibrosis compared to control (FIGS. 3-6) (male Cy/+ rat [3]; listed as compound A) |
| --- | --- | --- | --- | --- | --- | --- | --- | --- | --- | --- | --- | --- |
| O=C([O-])[C@H](O)[C@@H](O)[C@H](O)[C@H](O)CO.O=C([O-])[C@H](O)[C@@H](O)[C@H](O)[C@H](O)CO.[Ca+2] [Ca alone, reference compound] | 69 ± 18 | 11.2 ± 1.5 | 4.3 ± 0.8 | 39 ± 23 | 27 ± 11 | 4.0 ± 0.9 | 0.9 ± 0.2 | 10.1 ± 1.4 | cysts are a little smaller than control animals but there appears to be a similar number | 2.8 ± 0.2 |  |  |
| COc1cccc([C@@H](C)NCCCc2ccccc2Cl)c1.Cl [Compound A, N-(3-[2-chlorophenyl]-propyl)-R-α-methyl-3-methoxybenzylamine HCl] | 79 ± 21 | 8.2 ± 1.5 | 5.9 ± 1.4 | 131 ± 156 | 31 ± 15 | 3.1 ± 0.55 | 0.6 ± 0.1 | 9.5 ± 1.4 | noticeable decrease in cyst size and number | 2.6 ± 0.2 | reduces cyst volume and fibrosis | magnitude was significantly greater |
